Test results published in US6566331B1, “Treatment of collagen related diseases” (Alphamed Pharmaceutical Corp, priority 1999, dated 2003).

Legend:
Type in all cases: in vivo, human
[1] = tested on: women with interstitial cystitis; assay: 19 patient study of women with interstitial cystitis, intravesical instillation
Method: A 19 patient study of women with interstitial cystitis was conducted for four weeks. Three of the patients were diagnosed as being urinary incontinent. The diagnosis of IC was considered as being mild to severe. Powdered alpha 1-antitrypsin (40 mg) was dissolved in 40 ml of saline solution. The solutions were instilled into the bladder for 20 minutes weekly for four weeks. Cystoscopy was carried out during and after filling the bladder for one minute at a pressure of 80 cm of water under spinal and general anesthesia. Bladder biopsies were carried out during cystoscopy. 24-hour collection for measurement of creatine, methylhistamine and tryptase were taken.
In lieu of the recombinant or natural alpha 1-antitrypsin, the conjugate with PEG may be used.

[2] = tested on: patient with rheumatoid arthritis; assay: DMSO solution administered to arthritic knee of a patient with rheumatoid arthritis; settings: 5 percent solution in DMSO, topical on arthritic knee; after one week of treatment
Method: A 5 percent solution of alpha 1-antitrypsin was prepared with DMSO. A patient with rheumatoid arthritis administered the composition to an arthritic knee.

[3] = tested on: patient having scleroderma of the finger; assay: salve used daily on a patient having scleroderma of the finger
Method: A salve comprising 1% alpha 1-antitrypsin was prepared with Aquaphor® and 1% water. The salve was used daily on a patient having scleroderma of the finger. The finger was bent and constricted. The skin around the finger was hardened. After a daily application for one month the skin was softer, the finger was more flexible and the bending was less severe.

[4] = 40 mg in 40 ml saline instilled into the bladder for 20 minutes weekly for four weeks, weekly studies
[5] = salve, 1% alpha 1-antitrypsin with Aquaphor and 1% water, daily application for one month

## alpha 1-antitrypsin
[1]; [4]
  creatine, 24-hour collection: decrease
  methylhistamine, 24-hour collection: decrease
  tryptase, 24-hour collection: decrease
[1]; after two weeks of weekly instillation
  lesions by cystoscopy: substantial decrease in lesions
[1]; after two weeks of weekly instillation, three urinary incontinent patients
  continence of the incontinent patients: continent
[2]
  knee flexibility: greater flexibility
  knee pain: free of pain
  knee swelling: substantial reduction in swelling
[3]; [5]
  bending of the finger: less severe
  flexibility of the finger: more flexible
  skin around the finger: softer
[3]; within six months after stopping the 1% salve
  finger position after the treatment was stopped: returned to the bent position
